Laboratory results taken from patent US7893071B2, “Synthesis and evaluation of novel phthalimide mimics as anti-angiogenic” (University of Virginia Patent Foundation, priority 2001, dated 2011).

Columns and labels:
[1] = test system: corneal angiogenesis induced by vascular endothelial growth factor (VEGF); details: cited from earlier work
[2] = test system: angiogenesis induced by basic fibroblast growth factor (bFGF); details: cited from earlier work
angiogenesis = details: oral; cited from earlier work
[3] = test system: human vascular endothelial cells (HUVECS); assay: Endothelial cell proliferation assay ([3H]-thymidine incorporation); type: cell-based; details: HUVEC, 20% serum, preliminary IC50 data, read-out: Inhibition of Endothelial Cell Proliferation (IC50 μM)
Procedure: Endothelial Cell Proliferation Assay.
The human vascular endothelial cells (HUVECS) were cultured to peri-confluence (80%) in 20% serum and treated with thalidomide (standard) or its analog (40-400 μM). After 20 h, [^3H]-thymidine (2 μCi/ml) was added to the culture medium for 2-4 h. The [^3H]-thymidine incorporation was stopped with ice-cold PBS (3 washes) and the cells were incubated with cold 10% trichloroacetic acid (TCA) for 10 min at 4° C. The cells were further incubated with TCA at room temperature for 10 min and washed three times with PBS. The cells were solubilized overnight with 1N NaOH and neutralized with an equivalent amount of 1N HCl before radioactivity was determined. The anti-proliferative activity of thalidomide or its analog was computed as a percent inhibition of HUVECS mitogenic response to 20% serum (fetal calf serum).

endothelial cells = details: in vitro; cited from earlier work

| Compound | IC50 [3] | also measured |
| --- | --- | --- |
| O=C1CC[C@H](N2C(=O)c3ccccc3C2=O)C(=O)N1 (single isomer, unassigned) [S(−)-enantiomer of thalidomide] | – | anti-angiogenic activity of enantiomers, VEGF-induced corneal neovascularization ([1]; comparison of enantiomers): strongest anti-angiogenic activity; anti-angiogenic activity of enantiomers, bFGF-induced corneal neovascularization ([2]; comparison of enantiomers): strongest anti-angiogenic activity |
| O=C1CCC(N2C(=O)c3ccccc3C2=O)C(=O)N1 (stereo not drawn) [Compound 1, thalidomide] | 200 µM | inhibition of corneal angiogenesis ([1]; rabbits, pellet with 500 or 750 ng VEGF, two daily feedings of 200 mg/kg, after the 5th day of treatment, P<0.0001): statistically significant inhibition; effect on angiogenesis, orally in mice models (angiogenesis): inhibitory effects; effect on angiogenesis, bFGF induced corneal micropocket ([2]; rabbit): inhibitory effects; endothelial cell proliferation in treated cultures (endothelial cells): significant decrease |
| O=C1c2ccccc2C(=O)N1c1ccc2c(c1)CCC2 [Compound 5] | 85 µM | – |
| O=C1c2ccccc2C(=O)N1C1CCCc2ccccc21 (stereo not drawn) [Compound 7] | > 400 µM | – |
| CCC(c1cccc2ccccc12)N1C(=O)c2ccccc2C1=O (stereo not drawn) [Compound 29] | 45 µM | – |
| CCCCCCC(c1ccc(OC)c(OC)c1)N1C(=O)c2ccccc2C1=O (stereo not drawn) [Compound 32] | < 38.5 µM | – |
| CCOc1ccccc1N1C(=O)c2ccccc2C1=O [Compound 50] | 110 µM | – |
| Cc1cc(N)ccc1N1C(=O)c2ccc(Cl)cc2C1=O [Compound 51] | 350 µM | – |
| O=C1CC(N2C(=O)c3ccccc3C2=O)CC(=O)O1 [Compound 52] | > 400 µM | – |
| O=C1NC(=O)c2c1cccc2[N+](=O)[O-] [Compound 53] | > 400 µM | – |
